This note sets out measurements from US8716231B2, “Use of benzo-fused heterocycle sulfamide derivatives for the treatment of pain” (Janssen Pharmaceutica NV, priority 2005, dated 2014).

SMILES strings stand for the structures.

Data set [1] deals with acetic acid-induced abdominal stretching. Briefly: Acetic Acid-induced Abdominal Constriction Model of Visceral Pain. The data set is classed as in vivo, CD-1 mice. As to conditions: 560 mg/kg oral; for number of abdominal stretches: not statistically significant (vehicle 13 to 16.2). How it is done: The purpose of this assay was to determine whether Compound #8 reverses hypersensitivity in visceral, inflammatory and neuropathic models of pain.
Test compound and controls were dissolved in the appropriate volume of 0.5% HPMC or 10% solutol in 0.5% hydoxypropyl methylcellulose (HPMC). HPMC served as the vehicle for preparation of gabapentin solutions used as the positive control. Solutions were prepared to provide the final dose in a volume of 10 mL/kg orally (p.o.) for mice. Male CD-1 mice from Charles Rivers Laboratories (Portage, Me.), weighing between 25 and 30 grams at the time of study, were used for the acetic acid-induced abdominal stretching studies.
Mice in the acetic acid-induced abdominal stretching study were allowed 1 hr to acclimate to the testing room before the start of the study. Animals were housed in micro-isolator cages in groups of four rats per cage or 5 mice per cage with corncob bedding and free access to food and water. The environment was maintained at a constant temperature of 21° C., with a 12-hour light/dark cycle.
Animals used in the acetic acid-induced abdominal stretching test were maintained with original cage mates throughout the study period (four rats per cage, 5 mice per cage; cages were Nalgene® with corn cob bedding). Animals from several cages were randomly assigned across treatment groups; that is, mice in a given cage were pseudo-randomly assigned to different treatment groups. In all tests, the investigator performing the behavioral analysis was blinded to the treatment administered to any individual animal.
Mice were then given an i.p injection of 0.5 mL (2×0.25 mL/abdominal quadrant) of 0.6% acetic acid following 1 hr, 2 hrs, 3 hrs or 4 hours treatment with vehicle, compound or positive control. Five minutes after i.p acetic acid injection, 5 animals were placed into separate bell jars containing a small amount of bedding chips, and the number of abdominal stretches per animal was recorded for 5 minutes. This was repeated for each group (N=10 mice/group). […]

The subject of data set [2] is paclitaxel-evoked mechano-allodynia and mechano-hyperalgesia. Briefly: Taxol Induced Peripheral Neuropathy Model (longer term study, Example 20). The data set is classed as in vivo, Sprague-Dawley rats. How it is done:
Paclitaxel (Taxol®, Bristol-Myers-Squibb; 6 mg/ml in a 50:50 mixture of Cremophor and ethanol) was diluted just before use with saline to a concentration of 2 mg/ml and injected IP in a volume of 1 ml/kg) on four alternate days (D0, D2, D4, and D6).
Adult male Sprague-Dawley rats (Harlan, Indianapolis, Ind.; Frederick, Md. breeding colony) were caged on sawdust bedding in groups of 3-4 with food and water available ad libitum and a 12:12 hr light-dark cycle.
Group 3 was treated with an equal volume of vehicle, daily, starting on D0 (the same day as the beginning of paclitaxel dosing).
The animals were habituated to the testing environment on three separate days and then three daily baseline sessions were given to measure the normal response rate to stimulation with von Frey hairs exerting 4 g or 15 g of pressure (4 gVFH and 15 gVFH). Normal rats rarely, if ever, withdraw from stimulation with 4 gVFH; thus, a post-paclitaxel increase in responding to this stimulus is indicative of mechano-allodynia. Normal rats withdraw from stimulation with 15 gVFH 10-20% of the time; thus an increased response frequency to this stimulus is indicative of mechano-hyperalgesia.
The animals were positioned beneath upturned plastic mouse cages atop an elevated platform with wire-mesh flooring. Each VFH was applied to the glabrous skin of the mid-heel and the presence or absence of a withdrawal response was noted. This was repeated 5 times on each hind paw and the animal's responses were summarized as a percent response score (e.g., 5 withdrawal responses to 15gVFH stimulation would yield a score of 50%). Behavior was assessed by an observer who was blind as to group assignment.
Behavioral tests for paclitaxel's effects began on day 13 (D13) and were repeated on D15, D17, D21, D24, D28, D31, D35 and D38. […] For these days the drug was given at 0900 h and behavioral tests began at 1300 h. Significant paclitaxel-evoked mechano-allodynia and mechano-hyperalgesia were expected to develop 10-14 days after the last injection of paclitaxel.

In data set [3] the test system is formalin-induced inflammatory-mediated pain response (licking of injected hind-paw). Briefly: Mouse Formalin Assay (NINDS). The data set is classed as in vivo, mice. How it is done: The mouse formalin test is an acute and chronic model for testing the ability of a test compound for the treatment of pain.
In the Mouse Formalin Test, 0.5% formalin was injected s.c. into the plantar region of the hind-paw of adult male mice to induce an inflammatory-mediated pain response. Pain was expressed as licking of the injected area in a bi-modal manner—acute and chronic phase. The acute phase occurred immediately and lasted approximately […] post-injection, representing direct stimulation of pain fibers. Licking behavior resumes approximately 10 mins later (˜20 min post injection) and lasted 10-15 min, representing the chronic phase hypothesized to be caused by the release of inflammatory mediators such as cytokines.
Activity in the acute phase of the formalin test is an indicator of acute pain believed to correlate with peripheral pain pathways.
Compound #8 was evaluated in the Mouse Formalin Test as described above. […] For the acute phase the decrease was 52% from control (p<0.01), while for the chronic phase the decrease was 43% from control (p<0.01).

The mark [4] stands for this setting: both 60 mg/kg and 120 mg/kg PO daily for 20 days from D0, paclitaxel 2 mg/kg IP D0, D2, D4, D6.
[5] abbreviates: 110 mg/kg, i.p. 15 min prior to formalin injection, p<0.01.

On to `NCC1(CC(=O)O)CCCCC1` [gabapentin, reference compound], for which the “number of abdominal stretches” value in data set [1] (2 hr after administration) came out at 11.00±1.5 stretches; in data set [1] (3 hr after administration) it was 10.0±1.6 stretches.
Turning to `NS(=O)(=O)NC[C@H]1COc2cc(Cl)ccc2O1` [Compound #8, (2S)-(−)-N-(6-Chloro-2,3-dihydro-benzo[1,4]dioxin-2-ylmethyl)-sulfamide], the “continuation of suppressive effect after the last injection” value in data set [2] (60 mg/kg and 120 mg/kg PO daily) is given as “approximately 11 days”. Also, the side-effects entry in data set [2] (60 mg/kg and 120 mg/kg PO daily for 20 days) is “no apparent side-effects”. Besides, in data set [2] (setting [4]), the “development of mechano-allodynia (4 gVFH test)” value is “suppressed the development of mechano-allodynia and mechano-hyperalgesia”; the “development of mechano-hyperalgesia (15 gVFH test)” value is “suppressed the development of mechano-allodynia and mechano-hyperalgesia”. For the same molecule, in data set [3] (60 mg/kg i.p., p<0.01), the “chronic phase decrease from control” value worked out at 40%. For the same molecule, the “acute phase decrease from control” value in data set [3] (60 mg/kg i.p., p<0.05) came to 30%. In addition, in data set [3] (setting [5]), the “acute phase decrease from control” value is 52% and the “chronic phase decrease from control” value is reported as 43%. Further, in data set [1] (compared with vehicle- or gabapentin-treated mice), the “effect on acetic acid-induced stretching” value is listed as “did not significantly modify acetic acid-induced stretching”.
